This is an account of results in patent US20220332799A1, “HERV INHIBITORS FOR USE IN TREATING TAUOPATHIES” (Deutsches Zentrum Für Neurodegenerative Erkrankungen E.V. …, priority 2019, published 2022).

Entries after “also recorded” stand apart in the source; their conditions may differ.

Test [1] relates to MuERV Env. As to the kind of experiment: Western blot of Env maturation in donor cell lysates and EVs. The class given is cell-based, mouse. As to conditions: donor cells 10 μM, 3 days, vs DMSO. The method, then:
Cell lysates and EVs derived from Amprenavir-treated donor cell clone N2a NM-HA^agg s2E were analyzed for Env maturation by Western blot. Amprenavir-treated cell lysate and EVs lack the proteolytical mature Env transmembrane (TM) fragment p15E required for receptor binding. Cleaved products and degradation intermediates were detected by anti-MuLV virus antibody ABIN457298. Presumed bands representing Env precursor protein (gp85 and gp70), Pr15E or cleavage product (p15E) are indicated. • b., c. Aggregate induction in recipient N2a NM-GFP^sol cells cocultured with Amprenavir-pretreated N2a NM-HA^agg s2E donor cells or (c) in recipient cells exposed to EVs derived from Amprenavir-treated donors. • d. EVs from donor clone N2a NM-HA^agg s2E were incubated with increasing concentrations of anti-Env antibody mAb83A25 for 1 h and added to recipient N2a NMGFP^sol cells for 16 h. • e, g. Donor clone N2a NM-HA^agg s2E was transfected with three individual siRNAs (SEQ ID NO 14-19) against endogenous Env (e) or (SEQ ID NO 20-25) against Gag (g). […] MuERV Env and Gag protein levels were analyzed by Western blot. • l. […] Recipient N2a NM-GFP^sol cells were transfected with two siRNAs against XPR1 (SEQ ID NO 26-29), siRNA against mCat-1 (SEQ ID NO 30 and 31) or with non-silencing siRNA control. mRNA knock-down was assessed 48 h post siRNA transfection by quantitative PCR. […]

In test [2] the test system is HERV-K. As to conditions: Tyagi et al., Retrovirology (2017), 14:21; cited from earlier work.

With `CC(C)CN(C[C@@H](O)[C@H](Cc1ccccc1)NC(=O)O[C@H]1CCOC1)S(=O)(=O)c1ccc(N)cc1` [Amprenavir], the “Env protein maturation to TM p15E” value in test [1] was “efficiently inhibited Env protein maturation to TM p15E; also recorded: inhibits maturation of endogenous MuERV proteins, including Env”. In addition, the “effectiveness against HERV-K” value in test [2] is given as “effective against HERV-K”.
